# Structures can show the parent of a compound that is named as a salt.
# What was measured:
# [1] = Thermo-Gravimetric Analysis (TGA), thermal stability; format: physicochemical; details: 10° C./min ramp; for thermally stable up to (TGA): nitrogen
# Experimental: TGA thermograms were obtained with a TA Instrument Discovery 550 in Al pans. The heating rate used was 10° C./min linear ramp from 25 to 400° C. with a nitrogen purging at a rate of 60 ml/min. TGA thermograms were analysed using TRIOS software.
# [2] = Dynamic Vapor Sorption (DVS) analysis of salts, with XRPD of the post-DVS sample; format: physicochemical; details: for sorption/desorption behaviour (reversibility, hysteresis): DVS isotherm; for deliquescence during DVS: high RH
# Experimental: XRPD diffractograms were acquired using Bruker D2 Phaser diffractometer equipped with LYNXEYE detector. Samples were prepared using a zero-background sample holder. The samples were scanned from 5 to 32° (2θ) using a step size of 0.02° and a time per step of 0.13 second whilst spinning the sample. Diffractograms were plotted using the EVA program from Bruker.
# DVS analyses were performed on TA Instrument DVS Q5000. Samples were added to a pre-tared metallised quartz crucible and run at 25° C. from 40% RH to 90% RH, down to zero and back to 40%. This cycle was repeated in increments of 10% RH.
# [3] = Polymorphism screen of hydrochloride salt (thermal cycling, evaporations), XRPD; format: physicochemical; details: for XRPD Result: lyophilised hydrochloride salt, thermally cycled between ambient and 40° C., three days
# Experimental: To render the material amorphous and thus remove seeds of the pattern 1 the material was rendered amorphous. To 2.605 g of the hydrochloride lot RPI-014-022 dioxane (55 ml) and water (5 ml) was added. The mixture was agitated gently and warmed to aid dissolution.
# Twenty five of the lyophilised samples were treated with solvent and thermally cycled between ambient and 40° C. with four hours spent under each condition. After three days and solids were isolated by centrifuge filtration and analysed by XRPD.
# Twelve samples of the lyophilised material were treated with a minimal volume (ca 0.5 ml) of warm solvent, syringe filtered through a 0.22 µm filter and added to a clean HPLC vial and allowed to evaporate at RT. The solvents used and XRPD results following evaporation are detailed in the Table below: […]
# [4] = Solubility assessments in four different media; format: physicochemical; details: 250 mg per vial; for Observation: 1 ml media at 37° C.
# Experimental: Solubility assessments of 5-MeO-DMT oxalate, hydrobromide fumarate and benzoate were performed in four different media: […]
# [5] = format: physicochemical; details: 40° C./75% RH, three days
# Experimental: Salt screening studies with 24 selected counter-ions were performed to determine if 5-MeO-DMT free base is amenable to salt formation. […] Salts were examined by XRPD, TGA, DSC, 1H NMR and some by DVS analyses. Short term physical stability was examined by storage of salts at 40° C./75% RH for three days.
# Physical stability stress tests were conducted on generated crystalline salts at controlled temperature and relative humidity. The powder samples were stored at 40° C./75% RH for three days. After this time samples were analysed by XRPD to see whether the physical state of salts changed during the storage.
smiles,measurement,setting,value
"COc1ccc2[nH]cc(CCN(C)C)c2c1 [Benzenesulfonate salt, 5-MeO-DMT benzenesulfonate]",thermally stable up to (TGA),[1],250 °C
same,total water (moisture) uptake between 0% RH and 90% RH,[2]; 25° C,approximately 21 % w/w
same,"sorption/desorption behaviour (reversibility, hysteresis)",[2]; 25° C,hysteresis between 40-80% RH
same,water uptake up to 60% RH,[2]; first sorption isotherm,1.2 % w/w
same,moisture absorption at 70% RH,[2]; first sorption isotherm,7 % w/w
same,moisture absorption at 80% RH,[2]; first sorption isotherm,14 % w/w
same,deliquescence during DVS,[2],begins to deliquesce
COc1ccc2[nH]cc(CCN(C)C)c2c1.Cl [DJP2202-007-02],XRPD Result,[3]; 1-Propanol,Pattern 1
COc1ccc2[nH]cc(CCN(C)C)c2c1.Cl [DJP2202-007-03],XRPD Result,[3]; 2-Butanol,Pattern 1
COc1ccc2[nH]cc(CCN(C)C)c2c1.Cl [DJP2202-007-05],XRPD Result,[3]; 2-Methyltetrahydrofuran,Pattern 1
COc1ccc2[nH]cc(CCN(C)C)c2c1.Cl [DJP2202-007-06],XRPD Result,[3]; 2-Propanol,Pattern 1
COc1ccc2[nH]cc(CCN(C)C)c2c1.Cl [DJP2202-007-07],XRPD Result,[3]; Acetone,Pattern 1
COc1ccc2[nH]cc(CCN(C)C)c2c1.Cl [DJP2202-007-08],XRPD Result,[3]; Acetonitrile,Pattern 1
COc1ccc2[nH]cc(CCN(C)C)c2c1.Cl [DJP2202-007-09],XRPD Result,[3]; Anisole,Pattern 1
COc1ccc2[nH]cc(CCN(C)C)c2c1.Cl [DJP2202-007-10],XRPD Result,[3]; Chlorobenzene,Pattern 1
COc1ccc2[nH]cc(CCN(C)C)c2c1.Cl [DJP2202-007-11],XRPD Result,[3]; Ethanol,Pattern 1
COc1ccc2[nH]cc(CCN(C)C)c2c1.Cl [DJP2202-007-12],XRPD Result,[3]; Ethyl acetate,Pattern 1
COc1ccc2[nH]cc(CCN(C)C)c2c1.Cl [DJP2202-007-13],XRPD Result,[3]; Isopropyl acetate (experiment 007-13),Pattern 1
COc1ccc2[nH]cc(CCN(C)C)c2c1.Cl [DJP2202-007-15],XRPD Result,[3]; Propyl acetate,Pattern 1
COc1ccc2[nH]cc(CCN(C)C)c2c1.Cl [DJP2202-007-16],XRPD Result,[3]; Methylethyl ketone,Pattern 2
COc1ccc2[nH]cc(CCN(C)C)c2c1.Cl [DJP2202-007-20],XRPD Result,[3]; iso-Propyl acetate (experiment 007-20),Pattern 1
COc1ccc2[nH]cc(CCN(C)C)c2c1.Cl [DJP2202-007-21],XRPD Result,[3]; 2-Me-1-PrOH,Pattern 1
COc1ccc2[nH]cc(CCN(C)C)c2c1.Cl [DJP2202-007-22],XRPD Result,[3]; Tetrahydrofuran,Pattern 1
"COc1ccc2[nH]cc(CCN(C)C)c2c1 [Fumarate salt, 5-MeO-DMT fumarate]",thermally stable up to (TGA),[1],150 °C
same,mass difference between 40% RH and 0% RH,[2]; salt produced during scale-up,~ 2.84%
same,solid form after DVS (XRPD post DVS),[2]; salt produced during scale-up,a change in crystalline form occurred
same,pH after addition of 1 ml media at 37° C.,[4]; SNF,5.14
same,Observation,[4]; SNF,Clear solution
same,pH after addition of 1 ml media at 37° C.,[4]; pH 1.2 buffer,5.24
same,Observation,[4]; pH 1.2 buffer,Clear solution
same,pH after addition of 1 ml media at 37° C.,[4]; pH 4.5 buffer,5.31
same,Observation,[4]; pH 4.5 buffer,Clear solution
same,pH after addition of 1 ml media at 37° C.,[4]; pH 6.8 buffer,5.79
same,Observation,[4]; pH 6.8 buffer,Clear solution
"COc1ccc2[nH]cc(CCN(C)C)c2c1.Cl [Hydrochloride pattern 2, 5-MeO-DMT hydrochloride]",onset of decomposition / mass loss (TGA),[1]; hydrochloride,around 256 °C
"COc1ccc2[nH]cc(CCN(C)C)c2c1.Cl [Hydrochloride pattern 3, 5-MeO-DMT hydrochloride]",onset of decomposition / mass loss (TGA),[1]; hydrochloride,around 260 °C
"COc1ccc2[nH]cc(CCN(C)C)c2c1 [Ketoglutarate salt, 5-MeO-DMT ketoglutarate]",water uptake at 40% RH,"[2]; first sorption isotherm, 40% RH",0.13 % w/w
same,moisture absorption at 80% RH,[2]; first sorption isotherm,2.55 % w/w
same,water uptake at 90% RH,"[2]; first sorption isotherm, 90% RH",28.14 % w/w
same,deliquescence during DVS,[2],deliquesce at high RH
"COc1ccc2[nH]cc(CCN(C)C)c2c1.O=C(O)CC(O)C(=O)O [Malate salt, 5-MeO-DMT malate]",thermally stable up to (TGA),[1],around 170 °C
same,crystalline form by XRPD after storage,[5],conversion to a “gum” material
"COc1ccc2[nH]cc(CCN(C)C)c2c1 [Phosphate salt, 5-MeO-DMT phosphate]",total reversible mass change between 0-90% RH,"[2]; Example 3 Pattern 1 batches, listed as 5-MeO-DMT Phosphate Pattern 1",0.3 wt. %
same,crystalline form by XRPD after storage,[5],did not undergo any transformation
"COc1ccc2[nH]cc(CCN(C)C)c2c1 [Saccharinate salt, 5-MeO-DMT saccharinate]",thermally stable up to (TGA),[1],200 °C
"COc1ccc2[nH]cc(CCN(C)C)c2c1 [Tosylate salt, 5-MeO-DMT tosylate]",total water (moisture) uptake between 0% RH and 90% RH,[2]; 25° C,approximately 1.9 % w/w
same,"sorption/desorption behaviour (reversibility, hysteresis)",[2]; 25° C,reversibly without hysteresis
same,hygroscopicity classification,"[2]; salt screen / scale-up batches, DVS at 25° C",slightly hygroscopic (Pharmaceuticals that pick up between 0.2% and 2.0% moisture at 80% RH are considered slightly hygroscopic)
same,solid form after DVS (XRPD post DVS),[2]; salt screen batches,did not undergo any solid-state changes
same,crystalline form by XRPD after storage,[5],identical XRPD pattern
"COc1ccc2[nH]cc(CCN(C)C)c2c1.O=C(O)c1ccccc1 [benzoate salt pattern 2, 5-MeO-DMT benzoate]",thermally stable up to (TGA),[1],~ 170 °C
"COc1ccc2[nH]cc(CCN(C)C)c2c1.O=C(O)c1ccccc1 [benzoate salt pattern 3, 5-MeO-DMT benzoate]",onset of decomposition / mass loss (TGA),[1],approximately 190 °C
"COc1ccc2[nH]cc(CCN(C)C)c2c1.O=C(O)c1ccccc1 [benzoate salt pattern 4, 5-MeO-DMT benzoate]",onset of decomposition / mass loss (TGA),[1],~ 190 °C
same,thermally stable up to (TGA),[1],~ 190 °C
"COc1ccc2[nH]cc(CCN(C)C)c2c1 [free base, 5-methoxy-N,N-dimethyltryptamine]",thermally stable up to (TGA),[1],150 °C
"COc1ccc2[nH]cc(CCN(C)C)c2c1 [glycolate salt, 5-MeO-DMT glycolate]",thermally stable up to (TGA),[1],around 155 °C
same,"total moisture uptake between 0% RH and 90% RH, 1st cycle","[2]; 25° C, 1st cycle",approximately 62 % w/w
same,"total moisture uptake between 0% RH and 90% RH, 2nd cycle","[2]; 25° C, 2nd cycle",~59 % w/w
same,"sorption/desorption behaviour (reversibility, hysteresis)",[2]; 25° C,hysteresis between 40-80% RH
same,water uptake up to 60% RH,[2]; first sorption isotherm,2.3 % w/w
same,moisture absorption at 70% RH,[2]; first sorption isotherm,11 % w/w
same,moisture absorption at 80% RH,[2]; first sorption isotherm,33 % w/w
same,deliquescence during DVS,[2],begins to deliquesce
"COc1ccc2[nH]cc(CCN(C)C)c2c1.Cl [hydrochloride salt, 5-MeO-DMT hydrochloride]",thermally stable up to (TGA),[1],~ 235 °C
same,XRPD Results,"[3]; evaporation at RT of lyophilised material from 1-PrOH, DJP2202-011-02",Pattern 1
same,XRPD Results,"[3]; evaporation at RT of lyophilised material from EtOH, DJP2202-011-05",Pattern 1
same,XRPD Results,"[3]; evaporation at RT of lyophilised material from IPA, DJP2202-011-06",Pattern 1
same,XRPD Results,"[3]; evaporation at RT of lyophilised material from MEK, DJP2202-011-11",Pattern 1
same,XRPD Results,"[3]; evaporation at RT of lyophilised material from MeCN, DJP2202-011-12",Oil

# Reference: patent US20260209175A1, “PHARMACEUTICALLY ACCEPTABLE 5-METHOXY-N,N-DIMETHYL[…] AND COMPOSITIONS THEREOF” (priority 2022, published 2026)
